Experimental data reported in patent US20190031665A1, “DERIVATIVES OF PYRROLOIMIDAZOLE OR ANALOGUES THEREOF WHICH ARE USEFUL FOR THE TREATMENT OF INTER ALIA CANCER” (EMCURE PHARMACEUTICALS LIMITED, priority 2016, published 2019).

Tests used:
[1] = target: T1, human tryptophan 2,3-dioxygenase (hTDO) (Homo sapiens, UniProt P48775); assay: In-vitro human tryptophan 2,3-dioxygenase (TDO) enzyme assay; assay type: biochemical; conditions: for inhibition at 1 µM: hTDO enzyme at 1.0 μM concentration; for inhibition at 10 µM: hTDO enzyme at 10.0 μM concentration
T1 construct: His tag (N); purchased BPS Bioscience, San Diego, Calif., USA; host or cells: E. coli
T1 sequence (P48775 whole entry): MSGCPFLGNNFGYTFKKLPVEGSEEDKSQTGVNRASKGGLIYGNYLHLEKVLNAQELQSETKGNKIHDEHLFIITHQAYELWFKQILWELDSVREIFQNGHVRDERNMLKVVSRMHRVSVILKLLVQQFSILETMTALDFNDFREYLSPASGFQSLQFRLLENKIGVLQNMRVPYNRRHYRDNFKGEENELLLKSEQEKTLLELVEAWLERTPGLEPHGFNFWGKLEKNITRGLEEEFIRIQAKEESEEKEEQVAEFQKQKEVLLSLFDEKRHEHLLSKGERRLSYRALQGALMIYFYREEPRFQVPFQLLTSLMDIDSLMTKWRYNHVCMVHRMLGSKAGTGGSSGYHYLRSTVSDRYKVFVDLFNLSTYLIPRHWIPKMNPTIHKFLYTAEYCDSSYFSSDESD
Experimental: (§1) In the in-vitro human tryptophan 2,3-dioxygenase (hTDO) enzyme assay for screening inhibitor compounds, hTDO with an N-terminal histidine tag expressed and purified from E. coli (BPS Bioscience, San Diego, Calif., USA) was used. All other materials were procured from Sigma-Aldrich, St. Louis, Mo., USA.
The assay monitoring method for the conversion of L-tryptophan to N-formylkynurenine by hTDO was carried out as follows. hTDO (125 ng) was incubated in the presence of 200 μM L-tryptophan, 100 mM sodium phosphate buffer (pH 7.0), 0.01% Tween-20 and 100 μM ascorbic acid at about 37° C. for about 60 minutes. The reaction was terminated with 200 mM piperidine (PIP) and further incubated at about 65° C. for about 20 minutes to convert N-formylkynurenine (NFK) to NFK-PIP. The reaction mixture was then incubated at room temperature for about 75 minutes. The fluorescence intensity was read in a fluorescence microplate reader at an excitation wavelength of 400 nm and emission wavelength of 500 nm. Percent inhibition at each concentration of test compounds was determined by estimating the decrease in NFK-PIP. Data were analyzed using nonlinear regression to generate IC50 values using Graph Pad Prism® 6.

[2] = target: T2, human indoleamine 2,3-dioxygenase 1 (hIDO1) (Homo sapiens, UniProt P14902); assay: In-vitro human indoleamine 2,3-dioxygenase 1 (IDO1) enzyme assay; assay type: biochemical; conditions: for inhibition at 1 µM: hIDO1 enzyme at 1.0 μM concentration; for inhibition at 10 µM: hIDO1 enzyme at 10.0 μM concentration; for IC50: hIDO1 enzyme
T2 construct: His tag (N); purchased BPS Bioscience, San Diego, Calif., USA; host or cells: E. coli
T2 sequence (P14902 whole entry): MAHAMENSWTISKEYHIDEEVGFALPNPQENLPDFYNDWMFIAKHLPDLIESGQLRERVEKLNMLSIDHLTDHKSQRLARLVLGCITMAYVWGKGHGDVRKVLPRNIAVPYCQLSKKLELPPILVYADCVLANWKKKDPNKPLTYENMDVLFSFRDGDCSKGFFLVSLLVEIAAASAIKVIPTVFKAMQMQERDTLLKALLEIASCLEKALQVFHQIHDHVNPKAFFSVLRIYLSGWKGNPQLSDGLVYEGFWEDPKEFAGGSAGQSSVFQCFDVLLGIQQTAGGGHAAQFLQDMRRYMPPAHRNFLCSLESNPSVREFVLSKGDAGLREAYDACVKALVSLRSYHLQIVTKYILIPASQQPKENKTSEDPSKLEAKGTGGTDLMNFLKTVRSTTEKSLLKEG
Experimental: as §1, with “In-vitro human indoleamine 2,3-dioxygenase 1 (IDO1) enzyme assay: In” for “In”, “indoleamine” for “tryptophan”, “1 (hIDO1)” for “(hTDO)”, “hIDO1” for “hTDO”
The assay method for monitoring the conversion of L-tryptophan to N-formylkynurenine by hlDO1 was carried out as follows. hlDO1 (50 ng) was incubated with tryptophan (80 μM) in the presence of ascorbic acid (10 mM), methylene blue (10 μM), catalase (100 μg/ml) and 0.01% Tween-20 in sodium phosphate buffer (50 mM; pH 6.5) at 37° C. for 60 min. The reaction was terminated with 200 mM piperidine (PIP) and further incubated at about 65° C. for about 20 minutes to convert N-formylkynurenine (NFK) to NFK-PIP. The reaction mixture was then incubated at room temperature for about 1 hour. The fluorescence intensity was read in a fluorescence microplate reader at an excitation wavelength of 400 nm and emission wavelength of 500 nm. Percent inhibition at each concentration of test compounds was determined by estimating the decrease in NFK-PIP. Data were analyzed using nonlinear regression to generate IC50 values using Graph Pad Prism® 6.

| SMILES | inhibition at 1 µM [1] | inhibition at 1 µM [2] | inhibition at 10 µM [2] | IC50 [2] | inhibition at 10 µM [1] |
| --- | --- | --- | --- | --- | --- |
| CC1=C(c2ccccc2)C(C[C@@H](O)C2CCCN2S(=O)(=O)c2ccc(C)cc2)n2cncc21 (some centres unmarked) [Example 114] | ≥ 50% | ≤ 50% | ≥ 50% | – | – |
| COC(=O)c1ccc(C(=O)CC2C(c3ccccc3)=C(C)c3cncn32)cc1 (centres unmarked) [Example 18, 4-[2-(7-Methyl-6-phenyl-5H-pyrrolo[1,2-c]imidazol-5-yl)-acetyl]-benzoic acid methyl ester] | ≥ 50% | ≥ 50% | ≥ 50% | < 500 nM | ≥ 50% |
| CC1=C(c2ccccc2)C(C[C@H](O)C2CCC(C(=O)NC3CCCCC3)CC2)n2cncc21 (some centres unmarked) [Example 126] | ≥ 50% | ≥ 50% | ≥ 50% | < 500 nM | – |
| COC(=O)c1ccc(C(=O)CC2C(c3ccccc3)=C(C)c3cncn32)cc1 (single isomer, unassigned; isomer-i) [Example 71, 4-[2-(7-Methyl-6-phenyl-5H-pyrrolo[1,2-c]imidazol-5-yl)-acetyl]-benzoic acid methyl ester, Isomer-I] | ≥ 50% | ≥ 50% | ≥ 50% | < 500 nM | ≥ 50% |
| CC1=C(c2ccccc2)C(CC(O)C2CCN(C(=O)Nc3cccc(C)n3)CC2)n2cncc21 (centres unmarked) [Example 183] | ≤ 50% | ≥ 50% | ≥ 50% | < 500 nM | – |
| CC1=C(c2ccccc2)C(CC(=O)C2CCC(C(=O)Nc3ccc(Cl)cc3C)CC2)n2cncc21 (centres unmarked) [Example 118] | ≥ 50% | ≥ 50% | ≥ 50% | – | – |
| CC1=C(c2ccccc2)C(CC(=O)c2cccc(-c3ccccc3)c2)n2cncc21 (centres unmarked) [Example 69] | ≤ 50% | ≥ 50% | ≥ 50% | > 500 nM | – |
| CC1=C(c2ccccc2)C(CC(O)C2CCN(C(=O)Cc3ccccc3)CC2)n2cncc21 (centres unmarked) [Example 180] | ≥ 50% | ≥ 50% | ≥ 50% | < 500 nM | – |
| CC1=C(c2ccccc2)C(CC(=O)c2ccc(-c3cncnc3)cc2)n2cncc21 (centres unmarked) [Example 54] | ≥ 50% | ≥ 50% | ≥ 50% | – | – |
| CC1=C(c2ccccc2)C(CC(=O)c2ccc(F)cc2)n2cncc21 (centres unmarked) [Example 34, 1-(4-fluorophenyl)-2-(7-methyl-6-phenyl-5H-pyrrolo[1,2-c]imidazol-5-yl)ethan-1-one] | ≥ 50% | ≥ 50% | ≥ 50% | – | ≥ 50% |
| CNC(=O)c1ccc(C(=O)CC2C(c3ccccc3)=C(C)c3cncn32)cc1 (centres unmarked) [Example 78] | ≥ 50% | ≥ 50% | ≥ 50% | – | ≥ 50% |
| CC1=C(c2ccccc2)C(CC(=O)c2ccccc2)n2cncc21 (centres unmarked) [Example 11, 2-(7-Methyl-6-phenyl-5H-pyrrolo[1,2-c]imidazol-5-yl)-1-phenyl-ethanone] | – | – | ≥ 50% | > 500 nM | ≥ 50% |
| CC1=C(c2ccccc2)C(CC(=O)C2CCC(O)CC2)n2cncc21 (centres unmarked) [Example 99] | ≥ 50% | ≤ 50% | ≥ 50% | – | – |
| CC1=C(c2ccccc2)C(CC(O)C2CCN(C(=O)Nc3ccccc3)CC2)n2cncc21 (centres unmarked) [Example 158, 4-[1-Hydroxy-2-(7-methyl-6-phenyl-5H-pyrrolo[1,2-c]imidazol-5-yl)-ethyl]-piperidine-1-carboxylic acid phenyl amide] | ≥ 50% | ≥ 50% | ≥ 50% | < 500 nM | – |

Now from value to molecule:

| inhibition at 1 µM [1] | inhibition at 1 µM [2] | inhibition at 10 µM [2] | IC50 [2] | inhibition at 10 µM [1] | SMILES |
| --- | --- | --- | --- | --- | --- |
| ≥ 50% | ≥ 50% | ≥ 50% | < 500 nM | – | CC1=C(c2ccccc2)C(CC(O)C2CCN(C(=O)Cc3ccccc3F)CC2)n2cncc21 (centres unmarked) [Example 139, 2-(2-Fluorophenyl)-1-(4-(1-hydroxy-2-(7-methyl-6-phenyl-5H-pyrrolo[1,2-c]imidazol-5-yl)ethyl)piperidin-1-yl)ethan-1-one] |
| ≥ 50% | ≤ 50% | ≥ 50% | – | ≥ 50% | CC1=C(c2ccccc2)C(CC(=O)c2ccc(C)cc2)n2cncc21 (centres unmarked) [Example 27, 2-(7-Methyl-6-phenyl-5H-pyrrolo[1,2-c]imidazol-5-yl)-1-p-tolyl-ethanone] |
| ≥ 50% | ≤ 50% | ≤ 50% | – | – | CNC(=O)C1CCC(C(=O)CC2C(c3ccccc3)=C(C)c3cncn32)CC1 (centres unmarked) [Example 135] |
| ≥ 50% | ≥ 50% | ≥ 50% | – | ≥ 50% | CC1=C(c2ccccc2)C(CC(=O)c2cc(F)ccc2F)n2cncc21 (centres unmarked) [Example 36, 1-(2,5-difluorophenyl)-2-(7-methyl-6-phenyl-5H-pyrrolo[1,2-c]imidazol-5-yl)ethan-1-one] |
| ≥ 50% | ≤ 50% | ≥ 50% | – | – | CC1=C(c2ccccc2)C(CC(=O)c2ccc(N3CCOCC3)cc2)n2cncc21 (centres unmarked) [Example 49, 2-(7-methyl-6-phenyl-5H-pyrrolo[1,2-c]imidazol-5-yl)-1-(4-morpholinophenyl)ethan-1-one] |
| – | – | ≤ 50% | – | ≥ 50% | OC(CC1C2=C(CCCC2)c2cncn21)c1cccc(Cl)c1 (centres unmarked) [Example 4] |
| ≥ 50% | ≥ 50% | ≥ 50% | < 500 nM | ≥ 50% | CC1=C(c2ccccc2)C(CC(O)c2cccc(Cl)c2)n2cncc21 (centres unmarked) [Example 19, 1-(3-Chloro-phenyl)-2-(7-methyl-6-phenyl-5H-pyrrolo[1,2-c]imidazol-5-yl)-ethanol] |
| ≤ 50% | ≥ 50% | ≥ 50% | < 500 nM | – | CC1=C(c2ccccc2)C(CC(O)C2CCN(C(=O)Nc3ccc(F)c(Cl)c3)CC2)n2cncc21 (centres unmarked) [Example 182] |
| ≤ 50% | ≤ 50% | ≥ 50% | – | – | CC1=C(c2ccccc2)C(CC(O)C2CCN(C(=O)c3ccncc3)CC2)n2cncc21 (centres unmarked) [Example 162] |
| ≥ 50% | ≤ 50% | ≥ 50% | – | – | CC1=C(c2ccccc2F)C(CC(=O)C2CCCCC2)n2cncc21 (centres unmarked) [Example 101] |
| ≤ 50% | ≤ 50% | ≥ 50% | – | – | CC1=C(c2ccccc2)C(CC(O)c2ccc(C3CCCCC3)cc2)n2cncc21 (centres unmarked) [Example 74] |
| ≤ 50% | ≤ 50% | ≥ 50% | – | – | CC1=C(c2ccccc2)C(CC(=O)c2ccc(-c3ccc(C(F)(F)F)cc3)cc2)n2cncc21 (centres unmarked) [Example 61] |
| ≤ 50% | ≥ 50% | ≥ 50% | < 500 nM | – | CC1=C(c2ccccc2)C(CC(O)C2CCN(C(=O)Nc3ccccn3)CC2)n2cncc21 (centres unmarked) [Example 167] |
| ≤ 50% | ≤ 50% | ≥ 50% | – | – | CC1=C(c2ccccc2)C(CC(O)c2ccc(C(=O)Nc3ccc(Cl)cc3)cc2)n2cncc21 (centres unmarked) [Example 82] |
| ≥ 50% | ≥ 50% | ≥ 50% | < 500 nM | – | CC1=C(c2ccccc2)C(CC(=O)c2ccc(-c3ccncc3)cc2)n2cncc21 (centres unmarked) [Example 53] |
| ≤ 50% | ≥ 50% | ≥ 50% | < 500 nM | – | CC1=C(c2ccccc2)C(CC(=O)c2ccc(-c3ccc(O)cc3)cc2)n2cncc21 (centres unmarked) [Example 57] |
| ≥ 50% | ≥ 50% | ≥ 50% | < 500 nM | – | CC1=C(c2ccccc2)C(CC(=O)c2ccc(-c3ccccc3)cc2)n2cncc21 (single isomer, unassigned; isomer-i) [Example 42, 1-([1,1′-biphenyl]-4-yl)-2-(7-methyl-6-phenyl-5H-pyrrolo[1,2-c]imidazol-5-yl)ethan-1-one, Isomer-I] |
| ≤ 50% | ≤ 50% | ≥ 50% | – | – | CC1=C(c2ccccc2)C(CC(O)c2ccc(-c3ccsc3)cc2)n2cncc21 (centres unmarked) [Example 60] |
